Measured values: paper PMC7339578, “Multiple circulating alkaloids and saponins from intravenous Kang-Ai injection inhibit human cytochrome P450 and UDP-glucuronosyltransferase isozymes: potential drug–drug interactions” (Chinese Medicine, 2020)
“And” between values parts separate entries of the source, which are not always exact repeats. Equal entries are not always repeated. Where two headings read alike, the source gives them in different places.

How the values were obtained:
[1] = Plasma pharmacokinetics in rats after a 30-min intravenous infusion of Kang-Ai injection; type: in vivo, Sprague–Dawley rats
Method in brief: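 Fasted male Sprague–Dawley rats (250 ± 20 g) got a single 30-min tail-vein infusion of Kang-Ai injection at 6 mL/kg. Jugular blood was sampled from 5 min to 12 h for plasma. Parameters came from non-compartmental analysis (trapezoidal AUC), n = 3.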

[2] = Urinary (renal) excretion in rats after a 30-min infusion of Kang-Ai injection; type: in vivo, Sprague–Dawley rats; conditions: for CL renal: male, Sprague-Dawley, rat; for fe-U,0–12h (fraction of dose excreted into urine): rat urine 0–12 h; for fraction of dose excreted unchanged via renal plus hepatobiliary excretion (sum of fe-U and fe-B): rat urine + bile, 0–12 h
Method in brief: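 Urine collected in metabolic cages at 0–4, 4–8, 8–12 h and bile at 0–3, 3–6, 6–9, 9–12 h after infusion start, weighed and frozen at −80 °C. Non-compartmental analysis; CLR and CLB as cumulative urinary or biliary amount divided by plasma AUC0-∞, fe-U and fe-B as cumulative amount/dose; mean ± SD (n = 3).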

CYP1A2 = target: T1, CYP1A2 (Homo sapiens, UniProt P05177); assay: Inhibition of recombinant CYP1A2 (probe phenacetin); type: in vitro ADME
T1 construct: purchased Corning Biosciences 456203
T1 sequence (P05177 1-516): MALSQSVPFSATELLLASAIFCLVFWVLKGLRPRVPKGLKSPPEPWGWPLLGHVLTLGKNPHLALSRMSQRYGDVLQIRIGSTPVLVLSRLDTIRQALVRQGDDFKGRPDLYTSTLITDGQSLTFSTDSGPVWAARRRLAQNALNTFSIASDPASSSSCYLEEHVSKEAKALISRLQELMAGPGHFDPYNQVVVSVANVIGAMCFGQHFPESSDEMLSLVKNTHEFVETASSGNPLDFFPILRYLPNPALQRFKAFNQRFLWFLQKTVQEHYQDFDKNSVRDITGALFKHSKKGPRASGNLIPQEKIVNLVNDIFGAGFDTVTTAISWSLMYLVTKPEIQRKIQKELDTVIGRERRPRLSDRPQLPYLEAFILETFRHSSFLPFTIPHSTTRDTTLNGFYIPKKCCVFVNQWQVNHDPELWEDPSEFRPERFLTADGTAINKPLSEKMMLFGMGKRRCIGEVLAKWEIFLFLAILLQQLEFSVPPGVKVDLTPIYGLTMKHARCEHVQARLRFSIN
Method: (§1) In this study, phenacetin (100 μM), coumarin (100 μM), bupropion (100 μM), paclitaxel (60 μM), tolbutamide (200 μM), mephenytoin (100 μM), chlorzoxazone (200 μM) and nifedipine (40 μM) have been used as the probe substrates for CYP1A2, 2A6, 2B6, 2C8, 2C9, 2C19, 2E1 and 3A4, respectively.

CYP2E1 = CYP2E1 (Homo sapiens, UniProt P05181); assay: Inhibition of recombinant CYP2E1 (probe chlorzoxazone)
CYP2E1, sequence (P05181 whole entry): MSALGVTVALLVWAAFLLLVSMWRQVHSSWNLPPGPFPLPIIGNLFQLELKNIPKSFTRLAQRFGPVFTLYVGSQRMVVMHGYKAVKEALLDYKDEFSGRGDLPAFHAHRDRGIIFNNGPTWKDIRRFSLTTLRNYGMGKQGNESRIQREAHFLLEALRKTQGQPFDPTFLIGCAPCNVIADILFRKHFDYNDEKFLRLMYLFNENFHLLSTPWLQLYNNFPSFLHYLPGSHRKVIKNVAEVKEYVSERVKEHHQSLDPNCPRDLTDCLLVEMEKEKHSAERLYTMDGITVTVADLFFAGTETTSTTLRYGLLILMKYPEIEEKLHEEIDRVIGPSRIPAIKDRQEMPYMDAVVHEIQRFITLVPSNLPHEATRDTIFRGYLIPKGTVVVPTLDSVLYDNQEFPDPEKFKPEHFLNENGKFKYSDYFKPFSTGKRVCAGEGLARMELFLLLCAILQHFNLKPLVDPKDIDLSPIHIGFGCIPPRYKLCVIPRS
Method: Phase I incubation system (100 μL) contained Tris–HCl buffer (50 mM, pH = 7.4), MgCl2 (5 mM), each CYP isozyme, specific substrates, circulating compounds and NADPH (1 mM) as prescribed previously. After incubation (37 °C, 60 min), the reaction was terminated by ice-cold acetonitrile (100 μL), following by centrifugation at 13,800g for 10 min. The supernatant (8 μL) was acquired for ultra-high-performance liquid chromatography (UHPLC) system (Waters, Manchester, UK) analysis.
After optimization of incubation conditions (Additional file 1: Fig. S1), the substrates were incubated with each CYP isozyme at different protein concentrations (0.05 mg/mL for CYP1A2 and 3A4; 0.1 mg/mL for CYP2A6, 2B6, 2C8, 2C9, 2C19 and 2E1) in the absence (control) and presence of different mixture or herbal compounds (Kang-Ai injection and samples that Kang-Ai injection was diluted 10 times; 1, 10, and 100 μM for matrine and oxymatrine; 0.1, 1, 10 and 100 μM for astragalosides and ginsenosides).
The half-inhibition concentration (IC50) values were determined by non-linear regression analysis. […] The inhibition mechanism towards corresponding CYP and UGT isoforms were further explored.
The inhibition constant (Ki) values were obtained by multiple concentrations of substrates in the absence or presence of multiple concentrations of herbal compounds as described previously. […] (1)–(3), respectively. The model with the smallest Akaike information criterion (AIC) and Schwartz information criterion (SC) values was considered as the best model, following the obtained appropriate Ki values. Model fitting and parameter estimation were performed using Graphpad Prism V5 software (SanDiego, CA).

CYP3A4 = CYP3A4 (Homo sapiens, UniProt P08684); assay: Inhibition of recombinant CYP3A4 (probe nifedipine); type: in vitro ADME
CYP3A4, sequence (P08684 whole entry): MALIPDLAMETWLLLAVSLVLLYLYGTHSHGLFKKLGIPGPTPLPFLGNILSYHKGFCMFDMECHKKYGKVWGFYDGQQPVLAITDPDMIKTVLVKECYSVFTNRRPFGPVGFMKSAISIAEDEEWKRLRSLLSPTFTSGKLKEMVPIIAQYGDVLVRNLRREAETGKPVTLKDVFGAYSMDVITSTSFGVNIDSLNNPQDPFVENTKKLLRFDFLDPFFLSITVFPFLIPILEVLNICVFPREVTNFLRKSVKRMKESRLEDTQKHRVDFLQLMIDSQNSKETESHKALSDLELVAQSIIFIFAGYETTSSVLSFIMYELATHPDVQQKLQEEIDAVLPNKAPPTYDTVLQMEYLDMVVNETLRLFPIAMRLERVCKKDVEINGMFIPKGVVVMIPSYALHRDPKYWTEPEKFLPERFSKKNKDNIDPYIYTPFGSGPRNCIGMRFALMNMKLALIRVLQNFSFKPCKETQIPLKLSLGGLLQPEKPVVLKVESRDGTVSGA
Method: as §1

[3] = male, Sprague-Dawley, plasma, rat, 30-min iv infusion of Kang-Ai injection 6 mL/kg, Table 1 unit, read-out: CLtot, p (converted)
[4] = male, Sprague-Dawley, plasma, rat, 30-min iv infusion of Kang-Ai injection 6 mL/kg, Table 1 unit, read-out: VSS
[5] = male, Sprague-Dawley, rat plasma, 30-min iv infusion of Kang-Ai injection 6 mL/kg, read-out: t1/2 (converted)
[6] = urine and plasma, Kang-Ai injection 6 mL/kg iv, read-out: CLR (renal excretory clearance) (converted)
[7] = male, Sprague-Dawley, rat, in vivo, iv
[8] = recombinant isozyme, mean ± SD of triplicate, unit not given (IC50 classes in μM), read-out: IC50 towards CYP1A2
[9] = recombinant isozyme, mean ± SD of triplicate, unit not given (IC50 classes in μM), read-out: IC50 towards CYP3A4
[10] = male, Sprague-Dawley, rat plasma, 30-min iv infusion of Kang-Ai injection 6 mL/kg, read-out: Cmax

Row | SMILES | clearance [1, 3] [mL/min] | Vd [1, 4] [L] | half-life [1, 5] [h] | CL renal [2, 6] [mL/min] | fe-U,0–12h (fraction of dose excreted into urine) ([2]; Kang-Ai injection 6 mL/kg iv) | fraction of dose excreted unchanged via renal plus hepatobiliary excretion (sum of fe-U and fe-B) ([2]; Kang-Ai injection 6 mL/kg iv) | IC50 (CYP2E1) [µM] | IC50 (CYP1A2; [8]) [µM] | IC50 (CYP3A4; [9]) [µM] | Cmax [1, 10] [nM] | other results
1 | O=C1CCC[C@@H]2[C@H]3CCCN4CCC[C@@H](CN12)[C@@H]34 [Compound A1, Matrine] | 0.0263 | 0.00985 ± 0.00247 | 4.33 ± 2.18 | 0.015 | 57.40% and 57.40 ± 4.88% | exceeded 90% | > 100 | – | – | – | clearance ([1]; male, Sprague-Dawley, plasma, rat, Kang-Ai injection 6 mL/kg iv, read-out: CLtot, p (converted)): 1.58 mL/h/kg; Vd ([1]; male, Sprague-Dawley, plasma, rat, Kang-Ai injection 6 mL/kg iv, read-out: VSS (Vd)): 0.00985 L/kg; AUC(0-t) ([1]; male, Sprague-Dawley, rat, plasma, iv, 6 mL/kg, rat plasma, 30-min iv infusion of Kang-Ai injection 6 mL/kg, unit per footnote # for matrine and oxymatrine, read-out: AUC0–12h): 68.6 ± 9.85 µM·h; Cmax ([1]; male, Sprague-Dawley, rat plasma, 30-min iv infusion of Kang-Ai injection 6 mL/kg, unit per footnote # for matrine and oxymatrine, read-out: Cmax): 15100 ± 3580 nM; IC50 (CYP1A2): > 100 µM; IC50 (CYP3A4): > 100 µM
2 | O=C1CCC[C@@H]2[C@H]3CCC[N+]4([O-])CCC[C@@H](CN12)[C@@H]34 (stereo partly shown) [Compound A3, Oxymatrine] | – | – | – | – | – | – | > 100 | – | – | – | Cmax [1, 7]: 423000 ± 55500 nM; Vd [1, 7]: 0.22 L/kg; clearance [1, 7]: 1.86 mL/min/kg and 1.86 mL/min; half-life [1, 7]: 2.73 ± 1.16 h; CL renal ([2]; in vivo, iv): 1.18 mL/min; IC50 (CYP1A2): > 100 µM; IC50 (CYP3A4; IC50 towards CYP3A4, recombinant isozyme, mean ± SD of triplicate, unit not given (IC50 classes in μM)): > 100 µM
3 | CC(C)(O)[C@@H]1CC[C@](C)([C@H]2[C@@H](O)C[C@@]3(C)[C@@H]4C[C@H](O[C@@H]5O[C@H](CO)[C@@H](O)[C@H](O)[C@H]5O)[C@H]5C(C)(C)[C@@H](O[C@@H]6OC[C@@H](O)[C@H](O)[C@H]6O)CC[C@@]56C[C@@]46CC[C@]23C)O1 [Compound B2, Astragaloside IV] | – | – | – | – | – | about 25% | – | > 100 | > 100 | – | t1/2 ([1]; rat plasma, 30-min iv infusion of Kang-Ai injection 6 mL/kg): 1.64 ± 0.26 h; Cmax ([1]; rat plasma, 30-min iv infusion of Kang-Ai injection 6 mL/kg, read-out: Cmax): 2360 ± 252 nM; VSS (Vd) ([1]; rat, Kang-Ai injection 6 mL/kg iv): < 0.1 L/kg; IC50 (CYP2E1; read-out: IC50 towards CYP2E1, recombinant isozyme, mean ± SD of triplicate, unit not given (IC50 classes in μM)): > 100 µM
4 | CC(C)=CCC[C@](C)(O[C@@H]1O[C@H](CO)[C@@H](O)[C@H](O)[C@H]1O)[C@H]1CC[C@]2(C)[C@@H]1[C@H](O)C[C@@H]1[C@@]3(C)CC[C@H](O)C(C)(C)[C@@H]3[C@@H](O[C@@H]3O[C@H](CO)[C@@H](O)[C@H](O)[C@H]3O)C[C@]12C [Compound C6, Ginsenoside Rg1] | 2.61 | 0.144 ± 0.0642 | 1.2 ± 1.23 | 1.04 | 39.79 ± 5.88% | ~60% | > 100 | > 100 | > 100 | 1570 ± 175 | –
5 | CC(C)=CCC[C@](C)(O)[C@H]1CC[C@]2(C)[C@@H]1[C@H](O)C[C@@H]1[C@@]3(C)CC[C@H](O)C(C)(C)[C@@H]3[C@@H](O[C@@H]3O[C@H](CO)[C@@H](O)[C@H](O)[C@H]3O[C@@H]3O[C@H](CO)[C@@H](O)[C@H](O)[C@H]3O)C[C@]12C [Compound C7, Ginsenoside Rf] | – | – | – | 0.322 | 17.77 ± 3.90% | – | > 100 | > 100 | > 100 | – | Cmax [1, 7]: 943 ± 172 nM; clearance [1, 7]: 1.82 mL/min; half-life [1, 7]: 0.63 ± 0.31 h
6 | CC(C)=CCC[C@](C)(O[C@@H]1O[C@H](CO)[C@@H](O)[C@H](O)[C@H]1O)[C@H]1CC[C@]2(C)[C@@H]1[C@H](O)C[C@@H]1[C@@]3(C)CC[C@H](O)C(C)(C)[C@@H]3[C@@H](O[C@@H]3O[C@H](CO)[C@@H](O)[C@H](O)[C@H]3O[C@@H]3O[C@@H](C)[C@H](O)[C@@H](O)[C@H]3O)C[C@]12C [Compound C9, Ginsenoside Re] | 2.61 | 0.101 ± 0.027 | 1.07 ± 0.84 | 0.767 | 29.54 ± 6.03% | ~60% | > 100 | > 100 | > 100 | 1340 ± 88.1 | –
7 | CC(C)=CCC[C@](C)(O[C@@H]1O[C@H](CO)[C@@H](O)[C@H](O)[C@H]1O)[C@H]1CC[C@]2(C)[C@@H]1[C@H](O)C[C@@H]1[C@@]3(C)CC[C@H](O[C@@H]4O[C@H](CO)[C@@H](O)[C@H](O)[C@H]4O[C@@H]4O[C@H](CO)[C@@H](O)[C@H](O)[C@H]4O)C(C)(C)[C@@H]3CC[C@]12C [Compound D2, Ginsenoside Rd] | 0.0972 | – | 5.84 ± 3.13 | 0.0185 | 19.00 ± 5.33% | about 25% | > 100 | > 100 | 41 ± 25.8 | 766 ± 57.9 | Vd ([1]; male, Sprague-Dawley, plasma, rat, 30-min iv infusion of Kang-Ai injection 6 mL/kg, Table 1 unit): 0.0357 ± 0.0114 L/kg; inhibition type (smallest AIC and SC) (CYP3A4; CYP3A4): Noncompetitive inhibition; Ki (CYP3A4; CYP3A4, competitive model): 8.7 ± 2.3 µM; Ki (CYP3A4; CYP3A4, mixed-type model): 44.2 ± 16.2 µM; α (CYP3A4; CYP3A4, mixed-type model): 0.6 ± 0.3; Ki (CYP3A4; CYP3A4, noncompetitive model): 32.8 ± 2.2 µM; Cmax/Ki ([I]/Ki) (CYP3A4; CYP3A4, selected model, rat plasma Cmax): 0.02; IC50 (CYP3A4; nifedipine 40 μM, read-out: IC50 towards CYP3A4): 41 µM
8 | CC(C)=CCC[C@](C)(O[C@@H]1O[C@H](CO[C@@H]2O[C@@H](CO)[C@H](O)[C@H]2O)[C@@H](O)[C@H](O)[C@H]1O)[C@H]1CC[C@]2(C)[C@@H]1[C@H](O)C[C@@H]1[C@@]3(C)CC[C@H](O[C@@H]4O[C@H](CO)[C@@H](O)[C@H](O)[C@H]4O[C@@H]4O[C@H](CO)[C@@H](O)[C@H](O)[C@H]4O)C(C)(C)[C@@H]3CC[C@]12C [Compound D3, Ginsenoside Rc] | 0.0933 | 0.0378 ± 0.0102 | 6.29 ± 3.17 | 0.00967 | 10.48 ± 1.31% | – | > 100 | > 100 | > 100 | 877 ± 39.5 | –
9 | CC(C)=CCC[C@](C)(O[C@@H]1O[C@H](CO[C@@H]2O[C@H](CO)[C@@H](O)[C@H](O)[C@H]2O)[C@@H](O)[C@H](O)[C@H]1O)[C@H]1CC[C@]2(C)[C@@H]1[C@H](O)C[C@@H]1[C@@]3(C)CC[C@H](O[C@@H]4O[C@H](CO)[C@@H](O)[C@H](O)[C@H]4O[C@@H]4O[C@H](CO)[C@@H](O)[C@H](O)[C@H]4O)C(C)(C)[C@@H]3CC[C@]12C [Compound D5, Ginsenoside Rb1] | 0.103 | 0.047 ± 0.0199 | 7.22 ± 7.03 | 0.00633 | 6.41 ± 1.47% | – | > 100 | > 100 | > 100 | 497 ± 75.1 | –
